# Laboratory results published in ChEMBL document CHEMBL1201862, “PubChem BioAssay data set” (2004).
#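 96-well plates; 48 h exposure; 5 concentrations. Endpoints by linear interpolation between flanking doses. Not reached: highest tested concentration assigned. GI50 = concentration required for 50% inhibition of growth.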 Calls of active or inactive are those of the source. No stated cut-off is given here; in the data, active = GI50 up to about 1.1 µM and inactive = higher.
# Assays:
# Assay in all cases: growth of human tumour cells (NCI), 48 h
# [1] = tested on: 786-0
# [2] = tested on: A498
# [3] = tested on: A549
# [4] = tested on: ACHN
# [5] = tested on: CAKI-1
# [6] = tested on: CCRF-CEM
# [7] = tested on: DLD-1
# [8] = tested on: DMS-114
# [9] = tested on: DMS-273
# [10] = tested on: EKVX
# [11] = tested on: HCC 2998
# [12] = tested on: HCT-116
# [13] = tested on: HCT-15
# [14] = tested on: HL-60
# [15] = tested on: HOP-18
# [16] = tested on: HOP-62
# [17] = tested on: HOP-92
# [18] = tested on: HT-29
# [19] = tested on: IGROV-1
# [20] = tested on: K562
# [21] = tested on: KM-20L2
# [22] = tested on: KM12
# [23] = tested on: LOX IMVI
# [24] = tested on: LXFL 529
# [25] = tested on: M14
# [26] = tested on: M19-MEL
# [27] = tested on: MOLT-4
# [28] = tested on: Malme-3M
# [29] = tested on: NCI-H226
# [30] = tested on: NCI-H23
# [31] = tested on: NCI-H460
# [32] = tested on: OVCAR-3
# [33] = tested on: OVCAR-4
# [34] = tested on: OVCAR-5
# [35] = tested on: OVCAR-8
# [36] = tested on: RPMI-8226
# [37] = tested on: RXF 393
# [38] = tested on: RXF 631
# [39] = tested on: SF-268
# [40] = tested on: SF-295
# [41] = tested on: SF-539
# [42] = tested on: SK-MEL-28
# [43] = tested on: SK-MEL-2
# [44] = tested on: SK-MEL-5
# [45] = tested on: SN12C
# [46] = tested on: SNB-19
# [47] = tested on: SNB-75
# [48] = tested on: SNB-78
# [49] = tested on: SR
# [50] = tested on: SW-620
# [51] = tested on: TK-10
# [52] = tested on: UACC-257
# [53] = tested on: UACC-62
# [54] = tested on: UO-31
# [55] = tested on: XF498
# [56] = tested on: COLO 205
# [57] = tested on: NCI-H522
# [58] = tested on: SK-OV-3
# [59] = tested on: U-251
smiles,measurement,setting,value
C/C(CCn1[nH]c(=O)ccc1=O)=N\O,GI50,[1],> 100 µM (inactive)
same,GI50,[2],> 100 µM (inactive)
same,GI50,[3],> 100 µM (inactive)
same,GI50,[4],> 100 µM (inactive)
same,GI50,[5],> 100 µM (inactive)
same,GI50,[6],> 100 µM (inactive)
same,GI50,[7],> 100 µM (inactive)
same,GI50,[8],> 100 µM (inactive)
same,GI50,[9],> 100 µM (inactive)
same,GI50,[10],> 100 µM (inactive)
same,GI50,[11],> 100 µM (inactive)
same,GI50,[12],> 100 µM (inactive)
same,GI50,[13],> 100 µM
same,GI50,[14],> 100 µM (inactive)
same,GI50,[15],> 100 µM (inactive)
same,GI50,[16],> 100 µM (inactive)
same,GI50,[17],> 100 µM (inactive)
same,GI50,[18],> 100 µM (inactive)
same,GI50,[19],> 100 µM (inactive)
same,GI50,[20],> 100 µM (inactive)
same,GI50,[21],> 100 µM (inactive)
same,GI50,[22],> 100 µM (inactive)
same,GI50,[23],> 100 µM (inactive)
same,GI50,[24],> 100 µM (inactive)
same,GI50,[25],> 100 µM (inactive)
same,GI50,[26],> 100 µM (inactive)
same,GI50,[27],> 100 µM (inactive)
same,GI50,[28],> 100 µM (inactive)
same,GI50,[29],> 100 µM (inactive)
same,GI50,[30],> 100 µM (inactive)
same,GI50,[31],> 100 µM (inactive)
same,GI50,[32],> 100 µM (inactive)
same,GI50,[33],> 100 µM (inactive)
same,GI50,[34],> 100 µM (inactive)
same,GI50,[35],> 100 µM (inactive)
same,GI50,[36],> 100 µM (inactive)
same,GI50,[37],> 100 µM (inactive)
same,GI50,[38],> 100 µM (inactive)
same,GI50,[39],> 100 µM (inactive)
same,GI50,[40],> 100 µM (inactive)
same,GI50,[41],> 100 µM (inactive)
same,GI50,[42],> 100 µM (inactive)
same,GI50,[43],> 100 µM (inactive)
same,GI50,[44],> 100 µM (inactive)
same,GI50,[45],> 100 µM (inactive)
same,GI50,[46],> 100 µM (inactive)
same,GI50,[47],> 100 µM (inactive)
same,GI50,[48],> 100 µM (inactive)
same,GI50,[49],> 100 µM (inactive)
same,GI50,[50],> 100 µM (inactive)
same,GI50,[51],> 100 µM (inactive)
same,GI50,[52],> 100 µM (inactive)
same,GI50,[53],> 100 µM (inactive)
same,GI50,[54],> 100 µM (inactive)
same,GI50,[55],> 100 µM (inactive)
CCSc1nnc(CSc2nc(-c3ccccc3)c(-c3ccccc3)[nH]2)n1-c1ccccc1,GI50,[1],19.8 µM (inactive)
same,GI50,[2],18.5 µM (inactive)
same,GI50,[3],29.9 µM (inactive)
same,GI50,[4],17.2 µM (inactive)
same,GI50,[5],23.7 µM (inactive)
same,GI50,[6],17 µM (inactive)
same,GI50,[56],16.1 µM (inactive)
same,GI50,[7],20.2 µM (inactive)
same,GI50,[8],19 µM (inactive)
same,GI50,[9],23.4 µM (inactive)
same,GI50,[10],24.4 µM (inactive)
same,GI50,[11],20.8 µM (inactive)
same,GI50,[12],18.2 µM (inactive)
same,GI50,[13],18.5 µM
same,GI50,[14],25.8 µM (inactive)
same,GI50,[15],13.8 µM (inactive)
same,GI50,[16],20.2 µM (inactive)
same,GI50,[17],20.8 µM (inactive)
same,GI50,[18],19.4 µM (inactive)
same,GI50,[19],20.9 µM (inactive)
same,GI50,[20],25.3 µM (inactive)
same,GI50,[21],17.9 µM (inactive)
same,GI50,[22],16.9 µM (inactive)
same,GI50,[23],22.9 µM (inactive)
same,GI50,[24],27.4 µM (inactive)
same,GI50,[25],19 µM (inactive)
same,GI50,[26],18.6 µM (inactive)
same,GI50,[27],15.2 µM (inactive)
same,GI50,[28],20 µM (inactive)
same,GI50,[29],14.1 µM (inactive)
same,GI50,[30],21 µM (inactive)
same,GI50,[31],18.9 µM (inactive)
same,GI50,[57],16.4 µM (inactive)
same,GI50,[32],15.9 µM (inactive)
same,GI50,[34],14.5 µM (inactive)
same,GI50,[35],21.6 µM (inactive)
same,GI50,[36],21.5 µM (inactive)
same,GI50,[37],25.8 µM (inactive)
same,GI50,[38],19.6 µM (inactive)
same,GI50,[39],23.3 µM (inactive)
same,GI50,[40],23.1 µM (inactive)
same,GI50,[42],21 µM (inactive)
same,GI50,[43],21.7 µM (inactive)
same,GI50,[44],17.1 µM (inactive)
same,GI50,[58],26.4 µM (inactive)
same,GI50,[45],15.8 µM (inactive)
same,GI50,[46],16.1 µM (inactive)
same,GI50,[47],18.4 µM (inactive)
same,GI50,[48],41.1 µM (inactive)
same,GI50,[49],24.3 µM (inactive)
same,GI50,[50],16.6 µM (inactive)
same,GI50,[51],22.6 µM (inactive)
same,GI50,[59],17.9 µM (inactive)
same,GI50,[52],18.6 µM (inactive)
same,GI50,[53],15.3 µM (inactive)
same,GI50,[54],17.1 µM (inactive)
same,GI50,[55],20.3 µM (inactive)
Cc1ccccc1-n1c2nc(=O)n(C)c(=O)c-2nc2ccccc21,GI50,[1],15.8 µM (inactive)
same,GI50,[2],31.8 µM (inactive)
same,GI50,[3],13.2 µM (inactive)
same,GI50,[4],8.39 µM (inactive)
same,GI50,[5],24.4 µM (inactive)
same,GI50,[6],13.3 µM (inactive)
same,GI50,[56],3.56 µM (inactive)
same,GI50,[7],16.7 µM (inactive)
same,GI50,[8],4.9 µM (inactive)
same,GI50,[9],10.9 µM (inactive)
same,GI50,[10],11.8 µM (inactive)
same,GI50,[11],10.8 µM (inactive)
same,GI50,[12],14.6 µM (inactive)
same,GI50,[13],11.1 µM
same,GI50,[14],11.1 µM (inactive)
same,GI50,[15],10.5 µM (inactive)
same,GI50,[16],38.5 µM (inactive)
same,GI50,[18],4.24 µM (inactive)
same,GI50,[19],19.2 µM (inactive)
same,GI50,[20],18.2 µM (inactive)
same,GI50,[21],7.35 µM (inactive)
same,GI50,[22],12.2 µM (inactive)
same,GI50,[23],15.7 µM (inactive)
same,GI50,[24],12.5 µM (inactive)
same,GI50,[25],11 µM (inactive)
same,GI50,[26],1.85 µM (inactive)
same,GI50,[27],17.8 µM (inactive)
same,GI50,[28],5.58 µM (inactive)
same,GI50,[29],21 µM (inactive)
same,GI50,[30],10.1 µM (inactive)
same,GI50,[31],9.55 µM (inactive)
same,GI50,[57],14.9 µM (inactive)
same,GI50,[32],2.33 µM (inactive)
same,GI50,[33],13.6 µM (inactive)
same,GI50,[34],20.5 µM (inactive)
same,GI50,[35],12.2 µM (inactive)
same,GI50,[36],16.3 µM (inactive)
same,GI50,[37],17.2 µM (inactive)
same,GI50,[38],14.6 µM (inactive)
same,GI50,[39],12.7 µM (inactive)
same,GI50,[40],14.2 µM (inactive)
same,GI50,[41],15.2 µM (inactive)
same,GI50,[43],15.1 µM (inactive)
same,GI50,[44],10.6 µM (inactive)
same,GI50,[58],36.9 µM (inactive)
same,GI50,[45],13.3 µM (inactive)
same,GI50,[46],14.6 µM (inactive)
same,GI50,[47],20.1 µM (inactive)
same,GI50,[48],18.6 µM (inactive)
same,GI50,[50],13.4 µM (inactive)
same,GI50,[51],12.1 µM (inactive)
same,GI50,[59],17.3 µM (inactive)
same,GI50,[52],8.73 µM (inactive)
same,GI50,[53],3.48 µM (inactive)
same,GI50,[54],29.1 µM (inactive)
same,GI50,[55],17.5 µM (inactive)
Brc1nc2c3ccccc3ncn2c1Br,GI50,[1],37.2 µM (inactive)
same,GI50,[2],43.5 µM (inactive)
same,GI50,[3],38.8 µM (inactive)
same,GI50,[4],19.6 µM (inactive)
same,GI50,[5],28.3 µM (inactive)
same,GI50,[6],25.5 µM (inactive)
same,GI50,[56],16.3 µM (inactive)
same,GI50,[7],43.6 µM (inactive)
same,GI50,[8],33.4 µM (inactive)
same,GI50,[9],30.8 µM (inactive)
same,GI50,[10],21.1 µM (inactive)
same,GI50,[11],46.9 µM (inactive)
same,GI50,[12],37.3 µM (inactive)
same,GI50,[13],35.3 µM
same,GI50,[14],22.5 µM (inactive)
same,GI50,[15],14.4 µM (inactive)
same,GI50,[16],44.6 µM (inactive)
same,GI50,[17],27.9 µM (inactive)
same,GI50,[18],29.3 µM (inactive)
same,GI50,[19],35.9 µM (inactive)
same,GI50,[20],31.3 µM (inactive)
same,GI50,[21],28.4 µM (inactive)
same,GI50,[22],32.1 µM (inactive)
same,GI50,[23],19 µM (inactive)
same,GI50,[24],29.9 µM (inactive)
same,GI50,[25],38.5 µM (inactive)
same,GI50,[26],33.5 µM (inactive)
same,GI50,[27],25.3 µM (inactive)
same,GI50,[28],13.3 µM (inactive)
same,GI50,[29],26.4 µM (inactive)
same,GI50,[30],20.7 µM (inactive)
same,GI50,[31],34.2 µM (inactive)
same,GI50,[57],18.7 µM (inactive)
same,GI50,[32],0.316 µM (active)
same,GI50,[33],16 µM (inactive)
same,GI50,[34],64.9 µM (inactive)
same,GI50,[35],42.7 µM (inactive)
same,GI50,[36],23.4 µM (inactive)
same,GI50,[37],35.6 µM (inactive)
same,GI50,[38],39.4 µM (inactive)
same,GI50,[39],82.6 µM (inactive)
same,GI50,[40],34.4 µM (inactive)
same,GI50,[41],49.9 µM (inactive)
same,GI50,[42],82 µM (inactive)
same,GI50,[43],27.5 µM (inactive)
same,GI50,[44],18.3 µM (inactive)
same,GI50,[58],38.5 µM (inactive)
same,GI50,[45],30.1 µM (inactive)
same,GI50,[46],36.9 µM (inactive)
same,GI50,[47],20.1 µM (inactive)
same,GI50,[48],36.7 µM (inactive)
same,GI50,[49],19.4 µM (inactive)
same,GI50,[50],36.6 µM (inactive)
same,GI50,[51],56.4 µM (inactive)
same,GI50,[59],28.8 µM (inactive)
same,GI50,[52],33 µM (inactive)
same,GI50,[53],16.4 µM (inactive)
same,GI50,[54],36.7 µM (inactive)
same,GI50,[55],25.8 µM (inactive)
